Data as given in patent US6761904B2 (Nycomed Austria GmbH, priority 2000, dated 2004).

How the values were obtained:
[1] = Plasma pharmacokinetics of midodrine and desglymidodrine after oral intake / colon absorption (general findings and presumptions); format: in vivo, human; details: for Cmax: 7.5 mg, presumption made in estimating the target profile, obtained after tablet administration
[2] = after oral administration of a single dose; cited from earlier work

| SMILES | tmax of desglymidodrine after colon absorption ([1]; after application to the colon) | Cmax ([1]; human, in vivo) | Tmax ([1]; human, in vivo, po) | Cmax ([1]; human, plasma, oral) | tmax after oral intake of midodrine ([1]; midodrine itself in plasma) | persistence of the pressor effect [2] | time until the pressor effect is manifest [2] |
| --- | --- | --- | --- | --- | --- | --- | --- |
| COc1ccc(OC)c(C(O)CN)c1 (stereo not drawn) [desglymidodrine, alpha-(aminomethyl)-2,5-dimethoxy-benzenemethanol] | approximately 3 hours | ~3.75 ng/mL | 1 to 2 h | – | – | – | – |
| COc1ccc(OC)c(C(O)CNC(=O)CN)c1 (stereo not shown) [midodrine, 2-amino-N-[2-(2,5-dimethoxyphenyl)-2-hydroxyethyl]-acetamide] | – | – | – | ~11 ng/mL | about 30 min | 3 to 6 h | 20 to 90 min |
